Where two headings read alike, the source gives them in different places.
How the values were obtained:
[1] = system: HDL-C; conditions: cited from earlier work
[2] = system: LDL-C; conditions: cited from earlier work
[3] = cited from earlier work; for Phase III clinical trial outcome (in words): anacetrapib: 30.000 patient REVEAL trial
[4] = system: low-density lipoprotein cholesterol (LDL-C); assay: Phase 2 study of obicetrapib and ezetimibe in mild dyslipidaemia: LDL-C by Friedewald formula; format: in vivo, human
Excerpt: (§1) Study drugs will be administered by the participant orally and once daily on Days 1 through 57. Study drugs should be administered at approximately the same time each morning, with food. On days with visits scheduled, study drugs should be administered with food following all fasted blood samples. If a participant forgets to take study drug on a given day, they should take the next dose as normal and should not take a double dose to make up for the forgotten dose.
(§2) Up to 2 weeks after the Screening Visit, participants will return to the site on Day 1 (Visit 2) to be randomized and begin treatment. Approximately 100 eligible participants (25 participants per treatment group) will be randomized in a 1:1:1:1 ratio to 1 of the following treatment groups: • Combination therapy: 5 mg obicetrapib+10 mg ezetimibe; • Obicetrapib monotherapy: 5 mg obicetrapib+placebo ezetimibe; • Ezetimibe monotherapy: placebo obicetrapib+10 mg ezetimibe; or • Placebo: placebo obicetrapib+placebo ezetimibe.
LDL-C level was collected using the following 2 approaches: • 1. At each scheduled visit, LDL-C level was calculated using the Friedewald formula; and • 2. In addition, at baseline (Day 1) and at the end of the 8-week Treatment Period (Day 57), LDL-C was measured for all participants by preparative ultracentrifugation (PUC). Primary Efficacy Endpoint Primary analysis
The primary efficacy analysis of the percent change from Day 1 to Day 57 in LDL-C was performed using a mixed model for repeated measures (MMRM) approach. The analysis included fixed effects for treatment, visit, and treatment-by-visit interaction, along with a covariate of the baseline value as a continuous covariate. Randomization was stratified by categories of LDL-C value (<3.5 mmol/L [<135 mg/dL] or >3.5 mmol/L [≥135 mg/dL]) only to ensure similar distribution of LDL-C across all treatment groups; however, the MMRM model included the original scale of the LDL-C value as a continuous covariate. The Restricted Maximum Likelihood estimation approach was used with an unstructured covariance matrix. The least squares (LS) means, standard errors, and 2-sided 95% confidence intervals (CIs) for each treatment group, for the pairwise comparisons of the combination therapy, obicetrapib monotherapy, and ezetimibe monotherapy to placebo, and for the pairwise comparisons of combination therapy and obicetrapib monotherapy versus ezetimibe monotherapy are provided. The treatment comparison was performed using a 2-sided test at the α=0.05 level of significance.
Similar MMRM models were used for the exploratory efficacy endpoints. The proportion of participants at Day 57 that achieved LDL-C<2.6 mmol/L (<100 mg/dL), LDL-C<1.8 mmol/L (<70 mg/dL), and LDL-C<1.3 mmol/L (<50 mg/dL) were examined through Logistic Regression Models for binary variables with covariates of the treatment groups and the baseline variable.
This study was a placebo-controlled, double-blind, randomized Phase 2 study in participants with mild dyslipidemia to evaluate the efficacy, safety, and tolerability of obicetrapib and ezetimibe combination therapy. The primary efficacy endpoint was percent change from Day 1 to Day 57 in LDL-C for the obicetrapib 5 mg+ezetimibe 10 mg group compared to the placebo group.

[5] = system: apolipoprotein B (ApoB); assay: Phase 2 study of obicetrapib and ezetimibe in mild dyslipidaemia: ApoB; format: in vivo, human; conditions: mITT population, oral once daily
Excerpt: as §1, §2
Similar MMRM models were developed to examine the percent change from Day 1 to Day 57 in LDL-C (for other pairwise treatment group comparisons beside the analysis specified for the primary efficacy endpoint, using the Friedewald formula) or ApoB. In order to maintain the overall Type 1 error rate, the secondary efficacy endpoints were tested sequentially at the 0.05 significance level according to the pre-specified order of hierarchy. This applied to the following analyses: • Percent change from Day 1 to Day 57 in LDL-C for the obicetrapib monotherapy group compared to the placebo group; • Percent change from Day 1 to Day 57 in ApoB for the combination therapy group compared to the placebo group; • Percent change from Day 1 to Day 57 in ApoB for the obicetrapib monotherapy group compared to the placebo group; • Percent change from Day 1 to Day 57 in LDL-C for combination therapy group compared to the ezetimibe monotherapy group; • Percent change from Day 1 to Day 57 in LDL-C for the obicetrapib monotherapy group compared to the ezetimibe monotherapy group; • Percent change from Day 1 to Day 57 in LDL-C, for the ezetimibe monotherapy group compared to the placebo group; and • Percent change from Day 1 to Day 57 in ApoB for the combination therapy group compared to the ezetimibe monotherapy group.

[6] = Phase 2 study: safety and tolerability (adverse events); format: in vivo, human
Excerpt: The Safety Population included all participants who received at least 1 dose of any study drug. Treatment classification was based on the actual treatment received. The Safety Population was the primary population used for the safety analyses.
The Safety Population was the primary population for the safety analyses. All safety endpoints are summarized descriptively. No statistical inference was applied to the safety endpoints.
AEs were categorized by primary system organ class (SOC) and preferred term (PT) as coded using the Medical Dictionary for Regulatory Activities (version 23.0) category designations. Summaries of AEs, including the count and percentage of participants who experienced an AE, are provided.
An overview of treatment-emergent adverse events (TEAEs) is provided, including counts and percentages of participants (and event counts).
Listings are presented specifically for TEAEs, treatment-emergent serious adverse events (TESAEs), and TEAEs leading to discontinuation of study drug.

[7] = mITT population, mild dyslipidaemia, oral once daily, Day 57
[8] = mITT population, oral once daily, baseline to Day 57
[9] = torcetrapib dosed at 60 mg, Phase III clinical trials

CCC(CC)CC1(C(=O)Nc2ccccc2SC(=O)C(C)C)CCCCC1 [Dalcetrapib]
Increase of HDL-C ([1]; dalcetrapib clinical trials): 30-40% | Effects on LDL-C concentrations (in words) ([2]; dalcetrapib clinical trials): minimal effects

Cc1cc(C)c2c(c1)[C@@H](N(Cc1cc(C(F)(F)F)cc(C(F)(F)F)c1)c1nnn(C)n1)CCCN2C[C@H]1CC[C@H](C(=O)O)CC1 [Evacetrapib]
Phase III clinical trial outcome (in words) [3]: failed to pass a futility interim analysis

O=C1[C@H](CC[C@H](O)c2ccc(F)cc2)[C@@H](c2ccc(O)cc2)N1c1ccc(F)cc1 [Ezetimibe 10 mg, (3R,4S)-1-(4-fluorophenyl)-3-[(3 S)-3-(4-fluorophenyl)-3-hydroxypropyl]-4-(4-hydroxyphenyl)azetidin-2-one]
Number of participants that achieved LDL-C<70 mg/dL by Friedewald formula ([4]; Day 57): 1 participants | Number of participants that achieved LDL-C<100 mg/dL by Friedewald formula ([4]; Day 57): 8 participants | Percentage of participants that achieved LDL-C<70 mg/dL by Friedewald formula ([4]; Day 57): 3.6% | Percentage of participants that achieved LDL-C<100 mg/dL by Friedewald formula ([4]; Day 57): 28.6% | LDL-C by Friedewald formula at Day 57, mean [4, 7]: 109.1 mg/dL | LDL-C by Friedewald formula at Day 57, median [4, 7]: 109.0 mg/dL | Change from baseline to Day 57 in LDL-C by Friedewald formula, mean [4, 8]: -18.0 mg/dL | Change from baseline to Day 57 in LDL-C by Friedewald formula, median [4, 8]: -19.0 mg/dL | Percent change from baseline to Day 57 in LDL-C by Friedewald formula, mean [4, 8]: −12.69% | Percent change from baseline to Day 57 in LDL-C by Friedewald formula, median [4, 8]: −14.80% | ApoB at Day 57, mean ([5]; mild dyslipidaemia, Day 57): 94.8 mg/dL | ApoB at Day 57, median ([5]; mild dyslipidaemia, Day 57): 94.0 mg/dL | Change from baseline to Day 57 in ApoB, mean ([5]; baseline to Day 57): -9.5 mg/dL | Change from baseline to Day 57 in ApoB, median ([5]; baseline to Day 57): -8.0 mg/dL | Percent change from baseline to Day 57 in ApoB, mean ([5]; baseline to Day 57): −8.78% | Percent change from baseline to Day 57 in ApoB, median ([5]; baseline to Day 57): −8.90% | Reduction of LDL-C levels when compared to placebo ([2]; ezetimibe mono-therapy, patients with hypercholesterolemia): less than 20% | Participants who experienced at least 1 TEAE, number ([6]; Safety Population): 8 participants | Participants who experienced at least 1 TEAE, percentage ([6]; Safety Population): 28.6% | Participants who experienced at least 1 study drug-related TEAE, number ([6]; Safety Population): 3 participants | Participants who experienced at least 1 study drug-related TEAE, percentage ([6]; Safety Population): 10.7% | Participants with a TEAE with a maximum severity of moderate, number ([6]; Safety Population): 4 participants | Participants with a TEAE with a maximum severity of moderate, percentage ([6]; Safety Population): 14.3% | Participants with at least 1 TEAE that led to discontinuation of the study drug, number ([6]; Safety Population): 1 participants | Participants with at least 1 TEAE that led to discontinuation of the study drug, percentage ([6]; Safety Population): 3.6% | Participants who experienced a TESAE / SAE, number ([6]; hyperventilation and multiple fractures, both rated not related to the study drug): Two | Participants who experienced a TESAE, percentage of participants overall ([6]; percentage of participants overall): 1.8% | Participants who experienced a severe TEAE, number ([6]; severe TEAE of multiple fractures): One | Participants who experienced a severe TEAE, percentage of all participants ([6]; severe TEAE of multiple fractures, percentage of all participants): 0.9%

CCOC(=O)N1c2ccc(C(F)(F)F)cc2[C@@H](N(Cc2cc(C(F)(F)F)cc(C(F)(F)F)c2)C(=O)OC)C[C@H]1CC [Torcetrapib]
Increase of HDL-C [1, 9]: 72% | Safety concerns in clinical development (in words) ([3]; torcetrapib, Phase III clinical trials): unexpected increase in cardiovascular events and death | Decrease of LDL-C [2, 9]: 25%

COc1cc(F)c(C(C)C)cc1-c1ccc(C(F)(F)F)cc1CN1C(=O)O[C@H](c2cc(C(F)(F)F)cc(C(F)(F)F)c2)[C@@H]1C [anacetrapib]
Phase III clinical trial outcome (in words) [3]: reduced major cardiovascular events (MACE)

— US20240189311A1, “Combination Therapy of Obicetrapib and Ezetimibe for Use in Statin Intolerant Patients Suffering from Hyperlipidemia or Mixed Dyslipidaemia” (NEWAMSTERDAM PHARMA B.V., priority 2021, published 2024)
